Reference: patent US9315475B2 (MERCK SHARP & DOHME CORP., priority 2011, dated 2016)

Each compound was assayed against T1, wildtype HIV-1 protease (Human immunodeficiency virus type 1 group M subtype B, UniProt P04585) (assay: Assay for inhibition of microbial expressed HIV protease (Pepcleav)). Settings: wild type HIV-1 protease expressed in E. coli, peptide substrate, pH 5.5; mean of at least two independent experiments; read-out: Pepcleav.
T1 construct: the wildtype HIV-1 protease (which was expressed in Escherichia coli); made in house; host or cells: Escherichia coli
Assay type: biochemical
How it was run: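 E. coli-expressed wild-type HIV-1 protease (20 pM) preincubated 30 min at room temperature with inhibitor in pH 5.5 sodium acetate/NaCl/BSA buffer, then 400 μM Val-Ser-Gln-Asn-(βnaphthyl)Ala-Pro-Ile-Val added for 1 h at 30 °C. Quenched with formic acid; product quantified by LC-MS/MS peak area, indinavir internal standard.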

Point of comparison: `O=C(C[C@H](CC1CC1)c1ccccc1)Nc1cccc(F)c1CC[C@@H]1CN[C@H](COC(=O)NCC(F)(F)F)CO1` [Example 163, {(3S,6R)-6-[2-(2-{[(3S)-4-cyclopropyl-3-phenyl-butanoyl]amino}-6-fluoro-phenyl)ethyl]morpholin-3-yl}methyl (2,2,2-trifluoroethyl)carbamate], IC50 1100 nM. Against it:
- COC(=O)N[C@H](C(=O)Nc1ccccc1CC[C@@H]1CN[C@H](CNC(=O)c2cc3ncccn3n2)CO1)C(c1ccccc1)c1ccccc1 [Example 59, methyl N-[(1S)-1-benzhydryl-2-oxo-2-[[2-[2-[(2R,5R)-5-[(pyrazolo[1,5-a]pyrimidine-2-carbonylamino)methyl]morpholin-2-yl]ethyl]phenyl]amino]ethyl] carbamate] — 15-fold lower, 71 nM
- C[C@H](NC(=O)OC[C@@H]1CO[C@H](COc2c(F)cccc2NC(=O)[C@@H](N)C(c2ccc(F)cc2)c2ccc(F)cc2)CN1)c1ccc(F)cc1 [Example 210, 4-fluoro-N-[3-fluoro-2-({(2S,5S)-5-[({[(1S)-1-(4-fluorophenyl)ethyl]carbamoyl}oxy)methyl]morpholin-2-yl}methoxy)phenyl]-β-(4-fluorophenyl)-L-phenylalaninamide] — 85-fold lower, 13 nM
- COC(=O)N[C@H](C(=O)Nc1ccccc1CC[C@@H]1CN[C@H](CCc2ccccc2NC(=O)OCc2ccccc2)CO1)C(c1ccccc1)c1ccccc1 [Example 74, methyl N-[(1S)-1-benzhydryl-2-[[2-[2-[(2R,5R)-5-[2-(2-benzyloxycarbonylamino-phenyl)ethyl]morpholin-2-yl]ethyl]phenyl]amino]-2-oxo-ethyl]carbamate] — 110-fold lower, 10 nM
- COC(=O)N[C@H](C(=O)Nc1ccccc1CC[C@@H]1CN[C@H](C(=O)NS(=O)(=O)c2ccccc2)CO1)C(c1ccccc1)c1ccccc1 [Example 10, Nα-(methoxycarbonyl)-β-phenyl-N-[2-(2-{(2R,5S)-5-[(phenylsulfonyl)carbamoyl]morpholin-2-yl}ethyl)phenyl]-L-phenylalaninamide] — 65-fold lower, 17 nM
- N[C@H](C(=O)Nc1cncc(F)c1CC[C@@H]1CN[C@H](COC(=O)NCC2CCS(=O)(=O)C2)CO1)C(c1ccc(F)cc1)c1ccc(F)cc1 (stereo partly drawn) [Example 209, N-[4-(2-{(2R,5S)-5-[({[(1,1-dioxidotetrahydrothiophen-3-yl)methyl]carbamoyl}oxy)methyl]morpholin-2-yl}ethyl)-5-fluoropyridin-3-yl]-4-fluoro-β-(4-fluorophenyl)-L-phenylalaninamide] — 69-fold lower, 16 nM
- COC(=O)N[C@H](C(=O)Nc1ccccc1CC[C@@H]1CN[C@H](COC(=O)NCc2cncs2)CO1)C(c1ccccc1)c1ccccc1 [Example 19, methyl N-[(1S)-1-benzhydryl-2-oxo-2-[[2-[2-[(2R,5S)-5-(thiazol-5-ylmethylcarbamoyloxymethyl)morpholin-2-yl]ethyl]phenyl]amino]ethyl]carbamate] — 23-fold lower, 48 nM
- COC(=O)N[C@H](C(=O)Nc1ncccc1CC[C@@H]1CN[C@H](COC(=O)NCc2ccc(F)cc2)CO1)C(c1ccccc1)c1ccccc1 [Example 32, N-(3-{2-[(2R,5S)-5-({[(4-fluorobenzyl)carbamoyl]oxy}methyl)morpholin-2-yl]ethyl}pyridin-2-yl)-Nα-(methoxycarbonyl)-β-phenyl-L-phenylalaninamide] — 52-fold lower, 21 nM
- COC(=O)N[C@H](C(=O)Nc1ccccc1CC[C@@H]1CN[C@H](COC(=O)N(C)C)CO1)C(c1ccccc1)c1ccccc1 [Example 26, methyl N-[(1S)-1-benzhydryl-2-[[2-[2-[(2R,5S)-5-(dimethylcarbamoyloxymethyl)morpholin-2-yl]ethyl]phenyl]amino]-2-oxo-ethyl]carbamate] — 5.2-fold lower, 210 nM
- CCC[C@H](c1ccccc1)[C@H](N)C(=O)Nc1cccc(F)c1CC[C@@H]1CN[C@H](COC(=O)NCC(F)(F)F)CO1 [Example 228, (βR)-N-(3-fluoro-2-{2-[(2R,5S)-5-({[(2,2,2-trifluoroethyl)carbamoyl]oxy}methyl)morpholin-2-yl]ethyl}phenyl)-β-propyl-L-phenylalaninamide] — 5.8-fold lower, 190 nM
- COC(=O)N[C@H](C(=O)Nc1ccccc1CC[C@@H]1CN[C@H](CNS(=O)(=O)c2ccccc2)CO1)C(c1ccccc1)c1ccccc1 [Example 44, Nα-(methoxycarbonyl)-β-phenyl-N-(2-{2-[(2R,5R)-5-{[(phenylsulfonyl)amino]methyl}morpholin-2-yl]ethyl}phenyl)-L-phenylalaninamide] — 42-fold lower, 26 nM
- COC(=O)N[C@H](C(=O)Nc1ccccc1CC[C@@H]1CN[C@H](COC(=O)NC2CCc3ccccc32)CO1)C(c1ccccc1)c1ccccc1 (stereo partly drawn) [Example 15, N-(2-{2-[(2R,5S)-5-{[(2,3-dihydro-1H-inden-1-ylcarbamoyl)oxy]methyl}morpholin-2-yl]ethyl}phenyl)-Nα-(methoxycarbonyl)-β-phenyl-L-phenylalaninamide] — 270-fold lower, 4.1 nM
- COC(=O)N[C@H](C(=O)Nc1ccccc1CC[C@@H]1CN[C@H](COC(=O)NCc2cccc3ccncc23)CO1)C(c1ccccc1)c1ccccc1 [Example 18, methyl N-[(1S)-1-benzhydryl-2-[[2-[2-[(2R,5S)-5-(8-isoquinolylmethylcarbamoyloxymethyl)morpholin-2-yl]ethyl]phenyl]amino]-2-oxo-ethyl]carbamate] — 39-fold lower, 28 nM
- Cc1cccc(NC(=O)[C@@H](N)C(c2ccc(F)cc2)c2ccc(F)cc2)c1CC[C@@H]1CN[C@H](COC(=O)NCC(F)(F)F)CO1 [Example 226, 4-fluoro-β-(4-fluorophenyl)-N-(3-methyl-2-{2-[(2R,5S)-5-({[(2,2,2-trifluoro-ethyl)carbamoyl]oxy}methyl)morpholin-2-yl]ethyl}phenyl)-L-phenylalaninamide] — 3.1-fold lower, 360 nM
- COC(=O)N[C@H](C(=O)Nc1ccccc1CC[C@@H]1CN[C@H](CNC(=O)c2cc(-c3ccccn3)[nH]n2)CO1)C(c1ccccc1)c1ccccc1 [Example 60, methyl N-[(1S)-1-benzhydryl-2-oxo-2-[[2-[2-[(2R,5R)-5-[[[5-(2-pyridyl)-1H-pyrazole-3-carbonyl]amino]methyl]morpholin-2-yl]ethyl]phenyl]amino]ethyl] carbamate] — 15-fold lower, 72 nM
- N[C@@H](Cc1cccc2ccccc12)C(=O)Nc1cncc(F)c1CC[C@@H]1CN[C@H](COC(=O)NCc2ccc(F)cc2)CO1 [Example 191, {(3S,6R)-6-[2-(3-{[(2S)-2-amino-3-naphthalen-1-ylpropanoyl]amino}-5-fluoropyridin-4-yl)ethyl]morpholin-3-yl}methyl (4-fluorobenzyl)carbamate (non-preferred name)] — 8.5-fold lower, 130 nM
- CC(C)(CO)NC(=O)OC[C@@H]1CO[C@H](CCc2c(F)cncc2NC(=O)[C@@H](N)C(c2ccc(F)cc2)c2ccc(F)cc2)CN1 [Example 218, 4-fluoro-N-(5-fluoro-4-{2-[(2R,5S)-5-({[(2-hydroxy-1,1-dimethylethyl)carbamoyl]oxy}methyl)morpholin-2-yl]ethyl}pyridin-3-yl)-β-(4-fluorophenyl)-L-phenylalaninamide] — 520-fold lower, 2.1 nM
- COCC(=O)Nc1ccccc1CC[C@@H]1CO[C@H](CCc2ccccc2NC(=O)[C@@H](NC(=O)OC)C(c2ccccc2)c2ccccc2)CN1 [Example 70, methyl N-[(1S)-1-benzhydryl-2-[[2-[2-[(2R,5R)-5-[2-[2-[(2-methoxyacetyl)amino]phenyl]ethyl]morpholin-2-yl]ethyl]phenyl]amino]-2-oxo-ethyl]carbamate] — 46-fold lower, 24 nM
